Key:
[1] = molecular target: T1, Lxrβ (Homo sapiens, UniProt P55055); experiment: Lxr-responsive luciferase reporter assay (Lxre + Lxrβ) in SN4741 neural cells; format: cell-based, mouse; details: for Lxrβ activation, luciferase activity: SN4741 cells, 10 μM, 24 h; for Lxrβ activational capacity in combination with 22R-HC: acid 10 μM + 22R-HC 10 μM
T1 construct: expressed in transfected cells; host or cells: SN4741 mouse neuronal cell line
T1 sequence (P55055 1-460): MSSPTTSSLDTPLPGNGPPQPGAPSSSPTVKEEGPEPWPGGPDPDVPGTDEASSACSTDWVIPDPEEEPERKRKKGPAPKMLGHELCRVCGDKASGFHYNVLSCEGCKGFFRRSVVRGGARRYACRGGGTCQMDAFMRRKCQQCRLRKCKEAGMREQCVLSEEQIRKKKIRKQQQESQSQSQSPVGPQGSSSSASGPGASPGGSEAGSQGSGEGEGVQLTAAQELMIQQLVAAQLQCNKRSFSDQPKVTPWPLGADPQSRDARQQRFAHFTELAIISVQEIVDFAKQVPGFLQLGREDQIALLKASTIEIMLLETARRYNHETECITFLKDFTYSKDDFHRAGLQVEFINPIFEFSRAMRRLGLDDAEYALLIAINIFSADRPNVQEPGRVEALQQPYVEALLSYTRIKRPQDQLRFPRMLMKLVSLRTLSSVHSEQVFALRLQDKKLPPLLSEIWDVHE
Text: Luciferase Reporter Assay.

[2] = tested on: mouse E11.5 brain primary cultures; experiment: Mouse E11.5 brain primary cultures (Islet1+, active caspase 3+, BrdU, Nkx6.1 counts); format: cell-based; details: for Number of Islet1+ cells: 3 DIV; for Number of active caspase-3+ cells: 10 μM 3β,7α-diHCA, 3βH,7O-CA, 25-HC, low concentrations of 3β,7β-diHCA, 3β-HCA
Protocol: Primary Brain Cultures. Brains from E11.5 mice were manually dissected, plated on poly-D-lysine (150,000 cells/cm2) and grown in serum-free N2 media consisting of 1:1 mixture of F12 and DMEM with 10 ng/mL insulin, 100 μg/mL apo-transferrin, 100 μM putrescine, 20 nM progesterone, 30 nM selenium, 6 mg/mL glucose, and 1 mg/mL BSA. Cells were treated for 3 days in vitro (DIV) with the compounds of interest, fixed with 4% PFA and processed for staining using appropriate antibodies.
For BrdU analysis, cells were treated with BrdU one hour after plating and media was replaced with fresh medium after 16 h. After a further 2 days in culture, cells were treated for 30 min with 2N HCl and then immunocytochemistry was performed to evaluate the number of double BrdU+;Islet1+ cells (a measure of motor neuron neurogenesis). Hoechst staining was performed by permeabilizing cells with a 0.3% Triton-X 100/PBS solution for 5 min followed by incubation with Hoechst 33258 (Sigma) for 10 min.
Antibodies and Detection Procedures. Cells were fixed in 4% PFA, washed in PBS and blocked in 5% normal goat serum/PBS for 1 h at room temperature. Primary antibodies were diluted in PBS (pH 7.4), 0.3% Triton X-100, 1% BSA and incubations were carried out overnight at +4° C. or at room temperature for 2 h. The antibodies used were anti-: BrdU (1:400; Abeam), Islet-1 (1:100; Developmental Studies Hybridoma Bank), cleaved caspase-3 (Asp175) (1:100; Cell Signaling Technology), tyrosine hydroxylase (TH;1:1000; Pel-Freeze) GABA (1:1,000; Sigma), Brn3a (1:250; Millipore), Nkx6.1 (1:200; Novus Biologicals), choline acetyltransferase (ChAT; 1:500; Millipore) and appropriate secondary antibodies (Jackson ImmunoResearch or Alexa). Cells positive for the corresponding marker were counted directly at the microscope at a magnification of 20 x. Cells were counted in every well, in eight consecutive fields (going from one side of the well to the other, passing through the center), in three different wells per experiment and in three different experiments per condition. Random pictures of the wells were taken for every condition to document the result, and representative pictures were subsequently selected to represent the quantitative data. Photos were acquired with a Zeiss Axioplan microscope and a Hamamatsu camera C4742-95 using the Openlab software.

| Structure (SMILES) | Lxrβ activation, luciferase activity [1] | Lxrβ activational capacity in combination with 22R-HC [1] | Number of Nkx6.1+ progenitor cells [2] | Number of other midbrain neurons (TH+ dopamine, GABAergic, red nucleus) [2] | Reduction of neuronal cell death (activated caspase 3) induced by 2 μM 3β,7β-diHCA or 3β-HCA ([2]; 10 μM) | Rescue of loss of Islet1+ cells induced by 2 μM 3β,7β-diHCA or 3β-HCA ([2]; 10 μM) | Effect on active caspase-3+ cells with GGPP ([2]; GGPP 10 μM, 3β,7β-diHCA, 3β-HCA at 2 μM) | Number of Islet1+ cells ([2]; wild type cultures) | Concentration with significant difference (p<0.05) from vehicle in number of Islet1+ cells ([2]; wild type cultures, dose response) [µM] | Effect on Islet1+ cells with Lxr antagonist GGPP ([2]; wt cultures, GGPP 10 μM) | Number of active caspase-3+ cells ([2]; wt cultures) | Concentration at which toxicity is initiated (active caspase-3+ cells) ([2]; mouse, E11.5 mouse brain primary cultures, 3 days) [nM] |
| --- | --- | --- | --- | --- | --- | --- | --- | --- | --- | --- | --- | --- |
| CC(CCC[C@@H](C)[C@H]1CC[C@H]2[C@@H]3[C@H](O)C=C4C[C@@H](O)CC[C@]4(C)[C@H]3CC[C@]12C)C(=O)O (stereo partly drawn) [3β,7α-diHCA, 3β,7α-dihydroxycholest-5-en-26-oic acid] | have the ability to activate both Lxrs | No additive effect was observed | did not affect the number of Nkx6.1+ progenitor cells | did not affect the number of other midbrain neurons | reduced the neuronal cell death | reversed the loss of Islet 1+ cells | completely blocked by co-incubation with the Lxr inhibitor GGPP | increased the number of Islet1+ oculomotor cells in the cultures | ≥ 5 | blocked by the Lxr antagonist GGPP | decreased the number of active caspase-3+ cells |  |
| CC(CCC[C@@H](C)[C@H]1CC[C@H]2[C@@H]3CC=C4C[C@@H](O)CC[C@]4(C)[C@H]3CC[C@]12C)C(=O)O (stereo partly drawn) [3β-HCA, 3β-hydroxycholest-5-en-26-oic acid] | activates Lxr | No additive effect was observed | did not affect the number of Nkx6.1+ progenitor cells |  |  |  |  | caused the loss of Islet1+ cells in the cultures |  |  | increased the number of active caspase-3+ cells | 1000 |

Source: patent publication US20230416299A1, “COMPOUND AND METHOD FOR THE TREATMENT AND DIAGNOSIS OF NEURODEGENERATIVE CONDITIONS” (Swansea University, priority 2013, published 2023)
